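Test compounds were applied to cells in 96-well plates for 48 hours at 5 doses. Definition used: TGI = concentration required for complete inhibition of growth.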 Bounds are passed on as bounds.

Some test systems named below: ACHN renal; HCT-15 colon; HOP-92 NSCLC; MOLT-4 leukemia; NCI-H23 lung; SF-295 CNS; SF-539 CNS; SK-MEL-5 melanoma; NCI/ADR-RES ovarian.
Assay in all cases: NCI tumour cell line growth inhibition, 48 h

Regarding `Nc1ccn(CC(CO)CC(c2ccccc2)P(=O)(O)O)c(=O)n1` (centres undefined), the TGI in the assay on ACHN renal, in the assay on HCT-15 colon, in the assay with HOP-92 NSCLC, in the assay on MOLT-4 leukemia, in the assay on NCI-H23 lung and in the assay with SF-295 CNS was over 100 µM throughout. Besides, the TGI in the assay with SF-539 CNS and with SK-MEL-5 melanoma was over 100 µM throughout.

For `CCN1C(=O)C(N=[N+]=[N-])(c2ccccc2)C(=O)c2ccccc21` (centres undefined), the TGI in the assay on ACHN renal, in the assay on HCT-15 colon, with HOP-92 NSCLC, with MOLT-4 leukemia, in the assay on NCI-H23 lung and with SF-295 CNS was over 100 µM each time. Besides, the TGI in the assay on SF-539 CNS and in the assay with SK-MEL-5 melanoma was over 100 µM throughout.

As to `COC(=O)C(C(=O)C(=O)Nc1ccc([N+](=O)[O-])cc1)c1nc2cc(C)c(C)cc2[nH]c1=O` (centres undefined), the TGI in the assay on ACHN renal, in the assay on HCT-15 colon, in the assay on HOP-92 NSCLC, in the assay with MOLT-4 leukemia, in the assay with NCI-H23 lung and in the assay with SF-295 CNS was over 100 µM each time. The TGI in the assay with SF-539 CNS and in the assay with SK-MEL-5 melanoma was over 100 µM in each case.

On to `CCOC(=O)/C(=C/c1ccc(Cl)cc1)N(CC)CC`, for which the TGI in the assay on ACHN renal, with HCT-15 colon, in the assay with HOP-92 NSCLC, in the assay on MOLT-4 leukemia, in the assay on NCI-H23 lung and in the assay on SF-295 CNS was over 100 µM throughout. Also, the TGI with SF-539 CNS and in the assay with SK-MEL-5 melanoma was over 100 µM each time.

In the case of `CCOC(=O)NN(C(=O)OCC)C(C(=O)c1ccc(Cl)cc1)=C1NCCN1`, the TGI in the assay on ACHN renal, in the assay with HOP-92 NSCLC, in the assay with MOLT-4 leukemia, with NCI-H23 lung, in the assay on SF-295 CNS and in the assay with SF-539 CNS was over 100 µM in each case. Also, in the assay with SK-MEL-5 melanoma, the TGI is over 100 µM.

For `Nc1nc(Cl)nc2c1ncn2C1CCC(COP(=O)(O)OP(=O)(O)OP(=O)(O)O)O1` (centres undefined), the TGI in the assay on ACHN renal was over 100 µM; in the assay on HCT-15 colon it was 79.3 µM; in the assay with HOP-92 NSCLC it was 66.6 µM; in the assay with MOLT-4 leukemia, over 100 µM; in the assay with NCI-H23 lung, 41.6 µM; with NCI/ADR-RES ovarian, 55.8 µM. Moreover, the figures for the TGI in the assay on SF-295 CNS and in the assay with SF-539 CNS were 58.4 µM and over 100 µM, respectively.

As for `CC1=C2[C@@H](c3ccccc3)C3C=CC2(c2ccccc23)N(C(=O)Nc2cccc3ccccc23)C1=O` (some centres undefined), the TGI with ACHN renal, with HCT-15 colon, in the assay with HOP-92 NSCLC, in the assay on MOLT-4 leukemia, in the assay with NCI-H23 lung and with SF-295 CNS was over 100 µM throughout. Moreover, the TGI in the assay on SF-539 CNS and with SK-MEL-5 melanoma was over 100 µM in each case.

Take `CCOC1=C2C(C)(CCC3[C@@]4(C)C=CC(=O)C(C)(C)C4CC(O)[C@@]23C)C(c2ccoc2)C1=O` (some centres undefined): the TGI was determined as 37.4 µM with ACHN renal; 27.5 µM with HCT-15 colon; 41.9 µM in the assay on HOP-92 NSCLC; 40.4 µM in the assay with MOLT-4 leukemia; 34.8 µM with NCI-H23 lung; 46.5 µM with SF-295 CNS. The TGI in the assay on SF-539 CNS came out at 41.7 µM; in the assay on SK-MEL-5 melanoma, 29.5 µM.

With `NC(=O)OCC(COc1ccc(Cl)cc1)OC(=O)c1cc([N+](=O)[O-])cc([N+](=O)[O-])c1` (centres undefined), the TGI in the assay with ACHN renal, with HCT-15 colon, in the assay on HOP-92 NSCLC, with MOLT-4 leukemia, in the assay with NCI-H23 lung and with SF-295 CNS was over 100 µM throughout. Moreover, the TGI in the assay with SF-539 CNS and with SK-MEL-5 melanoma was over 100 µM each time.

For `Cc1cc2c(=O)c3ccccc3oc2c(C#N)c1C`, the TGI in the assay with ACHN renal, in the assay with HOP-92 NSCLC, in the assay on MOLT-4 leukemia, in the assay with NCI-H23 lung, in the assay on NCI/ADR-RES ovarian and with SF-295 CNS was over 100 µM in each case. In the assay with SK-MEL-5 melanoma, this molecule yielded a TGI of over 100 µM.

With `COC(=O)C1CCC[C@H]2C(CO)=C(C)C(=O)[C@@H]12` (some centres undefined), the TGI with ACHN renal, in the assay with HCT-15 colon, in the assay on HOP-92 NSCLC, in the assay with MOLT-4 leukemia, in the assay on NCI-H23 lung and in the assay with SF-295 CNS was over 100 µM throughout. Further, the TGI in the assay with SF-539 CNS and with SK-MEL-5 melanoma was over 100 µM each time.

On to `N#Cc1nc(Nc2ccc(Cl)cc2)sc1N`, for which the TGI in the assay on ACHN renal was 23.6 µM; with HCT-15 colon it was over 94.6 µM; with HOP-92 NSCLC, 52.1 µM; in the assay on MOLT-4 leukemia, 29.2 µM; in the assay on NCI-H23 lung, 13.2 µM; with SF-295 CNS it was 42 µM. Moreover, the TGI with SF-539 CNS worked out at 9.46 µM; in the assay with SK-MEL-5 melanoma, 6.41 µM.

For the molecule `N#CC(C#N)=Cc1ccc(Oc2ccccc2)cc1`, the TGI in the assay with ACHN renal is over 31.6 µM; in the assay with HCT-15 colon, over 100 µM; in the assay on MOLT-4 leukemia, 98.4 µM; in the assay on NCI-H23 lung, 52.2 µM; in the assay on SF-295 CNS it was 59.2 µM; in the assay on SF-539 CNS, 40.4 µM. In addition, in the assay with SK-MEL-5 melanoma, the TGI worked out at 64.7 µM.

As to `Cc1ccc(S(=O)(=O)NC(=O)C#CCOC2CCCCO2)cc1` (centres undefined), the TGI with ACHN renal, with HCT-15 colon, with HOP-92 NSCLC, with MOLT-4 leukemia, in the assay on NCI-H23 lung and with SF-295 CNS was over 100 µM in each case. Moreover, the TGI in the assay on SF-539 CNS and in the assay with SK-MEL-5 melanoma was over 100 µM in each case.

In the case of `O=C(NCCCCCCNC(=O)NC1OCC(O)C(O)C1O)NC1OCC(O)C(O)C1O` (centres undefined), the TGI with ACHN renal, in the assay with HCT-15 colon, with HOP-92 NSCLC, in the assay with MOLT-4 leukemia, in the assay with NCI-H23 lung and in the assay on SF-295 CNS was over 100 µM throughout. Moreover, the TGI in the assay with SF-539 CNS and with SK-MEL-5 melanoma was over 100 µM in each case.

In the case of `COc1cc2c3c(c1OCc1ccccc1)NCCC3NCC2` (centres undefined), the TGI in the assay with HCT-15 colon, in the assay on HOP-92 NSCLC, in the assay on MOLT-4 leukemia, in the assay with NCI-H23 lung, with SF-295 CNS and with SF-539 CNS was over 100 µM each time. Besides, the TGI with SK-MEL-5 melanoma is over 100 µM.
